target: ADAMTS4 (Homo sapiens (Human), UniProt O75173); experiment: Selectivity assay for ADAMTS-7 modulators: ADAMTS4 (FRET substrate); assay type: biochemical; settings: ADAMTS4 (R&D 4307-AD) 50 nM, substrate Dabcyl-EEVKAKVQPY-Glu(Edans)-NH2 1 μM, 120 min, 32° C.
Outline: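 Human ADAMTS4 with compound in DMSO, or DMSO control; reaction started by adding FRET substrate in reaction buffer. Fluorescence increase measured at substrate-specific wavelengths. IC50 derived from % inhibition of enzyme activity versus compound concentration.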

ADAMTS4, sequence (O75173 213-685): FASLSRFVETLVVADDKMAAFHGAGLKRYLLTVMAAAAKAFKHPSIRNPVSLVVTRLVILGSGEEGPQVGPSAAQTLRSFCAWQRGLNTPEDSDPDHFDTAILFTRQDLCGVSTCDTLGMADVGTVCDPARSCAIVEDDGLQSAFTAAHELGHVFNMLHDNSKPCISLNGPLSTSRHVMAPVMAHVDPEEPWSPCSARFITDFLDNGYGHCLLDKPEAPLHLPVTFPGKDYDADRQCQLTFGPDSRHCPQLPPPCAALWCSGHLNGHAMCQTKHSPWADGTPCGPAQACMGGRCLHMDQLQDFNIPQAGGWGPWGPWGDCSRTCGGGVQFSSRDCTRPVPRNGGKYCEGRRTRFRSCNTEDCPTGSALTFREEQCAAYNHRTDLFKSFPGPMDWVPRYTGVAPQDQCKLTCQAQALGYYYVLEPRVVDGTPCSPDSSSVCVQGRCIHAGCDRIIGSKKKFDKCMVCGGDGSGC

Row | SMILES | IC50 [µM]
1 | Cc1scnc1C1(CNC(=O)c2ccccc2-c2ccc(Cl)cc2)NC(=O)NC1=O (single isomer, unassigned; ent-4) [Example 172, Ent-4′-Chloro-N-{[4-(5-Methyl-1,3-Thiazol-4-Yl)-2,5-Dioxoimidazolidin-4-Yl]Methyl}[Biphenyl]-2-Carboxamide] | 3.1
2 | Cn1nccc1C1(CNC(=O)c2cc(F)ccc2-c2ccc(C(F)(F)F)cc2)NC(=O)NC1=O (single isomer, unassigned; ent-4) [Example 178, Ent-4-Fluoro-N-{[4-(1-Methyl-1H-Pyrazol-5-Yl)-2,5-Dioxoimidazolidin-4-Yl]Methyl}-4′-(Trifluoromethyl)[Biphenyl]-2-Carboxamide] | 5.37
3 | Cn1nccc1C1(CNC(=O)c2ccc(F)cc2-c2ccc(Cl)cc2)NC(=O)NC1=O (single isomer, unassigned; ent-4) [Example 180, Ent-4′-Chloro-5-Fluoro-N-{[4-(1-Methyl-1H-Pyrazol-5-Yl)-2,5-Dioxoimidazolidin-4-Yl]Methyl}[Biphenyl]-2-Carboxamide] | 17.8
4 | Cn1nccc1C1(CNC(=O)c2cc(F)c(F)cc2-c2ccc(C(F)(F)F)cc2)NC(=O)NC1=O (single isomer, unassigned; ent-4) [Example 192, Ent-4,5-Difluoro-N-{[4-(1-Methyl-1H-Pyrazol-5-Yl)-2,5-Dioxoimidazolidin-4-Yl]Methyl}-4′-(Trifluoromethyl)[Biphenyl]-2-Carboxamide] | 7.13
5 | CC(C)C1(CNC(=O)c2cc(F)ccc2-c2ccc(C(F)(F)F)cc2)NC(=O)NC1=O (single isomer, unassigned; ent-4) [Example 212, Ent-4-Fluoro-N-[(4-Isopropyl-2,5-Dioxoimidazolidin-4-Yl)Methyl]-4′-(Trifluoromethyl)[Biphenyl]-2-Carboxamide] | 13
6 | CC(C)C1(CNC(=O)c2cc(F)c(F)cc2-c2ccc(C(F)(F)F)cc2)NC(=O)NC1=O (single isomer, unassigned; ent-4) [Example 213, Ent-4,5-Difluoro-N-[(4-Isopropyl-2,5-Dioxoimidazolidin-4-Yl)Methyl]-4′-(Trifluoromethyl)[Biphenyl]-2-Carboxamide] | 30
7 | O=C1NC(=O)C(CNC(=O)c2ccccc2-c2ccc(Cl)cc2)(C2CC(F)(F)C2)N1 (single isomer, unassigned; ent-4) [Example 247, Ent-4′-Chloro-N-{[4-(3,3-Difluorocyclobutyl)-2,5-Dioxoimidazolidin-4-Yl]Methyl}[Biphenyl]-2-Carboxamide] | > 50
8 | O=C1NC(=O)C(CNC(=O)c2ccccc2-c2ccc(Cl)cc2)(c2ccnn2C(F)F)N1 (single isomer, unassigned; ent-4) [Example 259, Ent-4′-Chloro-N-({4-[1-(Difluoromethyl)-1H-Pyrazol-5-Yl]-2,5-Dioxoimidazolidin-4-Yl}Methyl)[Biphenyl]-2-Carboxamide] | 5.8
9 | Cn1nccc1C1(CNC(=O)c2ccc(F)cc2-c2ccc(C(F)(F)F)nc2)NC(=O)NC1=O (single isomer, unassigned; ent-4) [Example 291, Ent-4-Fluoro-N-{[4-(1-Methyl-1H-Pyrazol-5-Yl)-2,5-Dioxoimidazolidin-4-Yl]Methyl}-2-[6-(Trifluoromethyl)Pyridin-3-Yl]Benzamide] | 14
10 | COc1cc(Cl)ccc1-c1ccccc1C(=O)NCC1(c2ccnn2C)NC(=O)NC1=O (single isomer, unassigned; ent-4) [Example 314, Ent-4′-Chloro-2′-Methoxy-N-{[4-(1-Methyl-1H-Pyrazol-5-Yl)-2,5-Dioxoimidazolidin-4-Yl]Methyl}[Biphenyl]-2-Carboxamide] | > 50

Continued, values first:

Row | IC50 [µM] | SMILES
11 | 25 | Cn1ccnc1C1(CNC(=O)c2cc(Cl)ccc2-c2ccc(C(F)(F)F)cc2)NC(=O)NC1=O (single isomer, unassigned; ent-4) [Example 156, Ent-4-Chloro-N-{[4-(1-Methyl-1H-Imidazol-2-Yl)-2,5-Dioxoimidazolidin-4-Yl]Methyl}-4′-(Trifluoromethyl)[Biphenyl]-2-Carboxamide]
12 | 23 | Cn1nccc1C1(CNC(=O)c2ccccc2-c2ccc(Cl)cc2F)NC(=O)NC1=O (single isomer, unassigned; ent-4) [Example 313, Ent-4′-Chloro-2′-Fluoro-N-{[4-(1-Methyl-1H-Pyrazol-5-Yl)-2,5-Dioxoimidazolidin-4-Yl]Methyl}[Biphenyl]-2-Carboxamide]
13 | 20 | Cn1nccc1C1(CNC(=O)c2c(F)cccc2-c2ccc(Cl)cc2)NC(=O)NC1=O (single isomer, unassigned; ent-4) [Example 312, Ent-4′-Chloro-3-Fluoro-N-{[4-(1-Methyl-1H-Pyrazol-5-Yl)-2,5-Dioxoimidazolidin-4-Yl]Methyl}[Biphenyl]-2-Carboxamide]
14 | 11 | O=C1NC(=O)C(CNC(=O)c2ccccc2-c2ccc(Cl)cc2)(C2(F)CC2)N1 (single isomer, unassigned; ent-4) [Example 251, Ent-4′-Chloro-N-{[4-(1-Fluorocyclopropyl)-2,5-Dioxoimidazolidin-4-Yl]Methyl}[Biphenyl]-2-Carboxamide]
15 | 6.3 | Cn1nccc1C1(CNC(=O)c2ccc(Cl)cc2-c2ccc(C(F)(F)F)nc2)NC(=O)NC1=O (single isomer, unassigned; ent-4) [Example 289, Ent-4-Chloro-N-{[4-(1-Methyl-1H-Pyrazol-5-Yl)-2,5-Dioxoimidazolidin-4-Yl]Methyl}-2-[6-(Trifluoromethyl)Pyridin-3-Yl]Benzamide]
16 | 4.9 | Cc1scnc1C1(CNC(=O)c2ccc(F)cc2-c2ccc(Cl)cc2)NC(=O)NC1=O (single isomer, unassigned; ent-4) [Example 170, Ent-4′-Chloro-5-Fluoro-N-{[4-(5-Methyl-1,3-Thiazol-4-Yl)-2,5-Dioxoimidazolidin-4-Yl]Methyl}[Biphenyl]-2-Carboxamide]
17 | 4.9 | Cc1scnc1C1(CNC(=O)c2ccccc2-c2ccc(S(C)(=O)=O)cc2)NC(=O)NC1=O (single isomer, unassigned; ent-4) [Example 175, Ent-4′-(Methylsulfonyl)-N-{[4-(5-Methyl-1,3-Thiazol-4-Yl)-2,5-Dioxoimidazolidin-4-Yl]Methyl}[Biphenyl]-2-Carboxamide]
18 | 4.03 | Cn1nccc1C1(CNC(=O)c2ccccc2-c2ccc(Cl)cc2)NC(=O)NC1=O (single isomer, unassigned; ent-4) [Example 182, Ent-4′-Chloro-N-{[4-(1-Methyl-1H-Pyrazol-5-Yl)-2,5-Dioxoimidazolidin-4-Yl]Methyl}[Biphenyl]-2-Carboxamide]
19 | 3.7 | Cc1ncsc1C1(CNC(=O)c2ccc(Cl)cc2-c2ccc(C(F)(F)F)cc2)NC(=O)NC1=O (single isomer, unassigned; ent-5) [Example 7, Ent-5-Chloro-N-{[4-(4-Methyl-1,3-Thiazol-5-Yl)-2,5-Dioxoimidazolidin-4-Yl]Methyl}-4′-(Trifluoromethyl)[Biphenyl]-2-Carboxamide]
20 | 3.55 | Cn1nccc1C1(CNC(=O)c2cc(F)ccc2-c2ccc(Cl)cc2)NC(=O)NC1=O (single isomer, unassigned; ent-4) [Example 187, Ent-4′-Chloro-4-Fluoro-N-{[4-(1-Methyl-1H-Pyrazol-5-Yl)-2,5-Dioxoimidazolidin-4-Yl]Methyl}[Biphenyl]-2-Carboxamide]
21 | 3.25 | Cc1scnc1C1(CNC(=O)c2cc(F)ccc2-c2ccc(C(F)(F)F)cc2)NC(=O)NC1=O (single isomer, unassigned; ent-4) [Example 166, Ent-4-Fluoro-N-{[4-(5-Methyl-1,3-Thiazol-4-Yl)-2,5-Dioxoimidazolidin-4-Yl]Methyl}-4′-(Trifluoromethyl)[Biphenyl]-2-Carboxamide]
22 | 3 | Cn1ccnc1C1(CNC(=O)c2ccc(F)cc2-c2ccc(Cl)cc2)NC(=O)NC1=O (single isomer, unassigned; ent-4) [Example 157, Ent-4′-Chloro-5-Fluoro-N-{[4-(1-Methyl-1H-Imidazol-2-Yl)-2,5-Dioxoimidazolidin-4-Yl]Methyl}[Biphenyl]-2-Carboxamide]
23 | 2.6 | Cc1scnc1C1(CNC(=O)c2cc(F)ccc2-c2ccc(Cl)cc2)NC(=O)NC1=O (single isomer, unassigned; ent-4) [Example 174, Ent-4′-Chloro-4-Fluoro-N-{[4-(5-Methyl-1,3-Thiazol-4-Yl)-2,5-Dioxoimidazolidin-4-Yl]Methyl}[Biphenyl]-2-Carboxamide]
24 | 1.57 | Cn1nccc1C1(CNC(=O)c2ccc(Cl)cc2-c2ccc(Cl)cc2)NC(=O)NC1=O (single isomer, unassigned; ent-4) [Example 193, Ent-4′,5-Dichloro-N-{[4-(1-Methyl-1H-Pyrazol-5-Yl)-2,5-Dioxoimidazolidin-4-Yl]Methyl}[Biphenyl]-2-Carboxamide]
25 | 0.83 | Cn1ccnc1C1(CNC(=O)c2cc(F)ccc2-c2ccc(Cl)cc2)NC(=O)NC1=O (single isomer, unassigned; ent-4) [Example 160, Ent-4′-Chloro-4-Fluoro-N-{[4-(1-Methyl-1H-Imidazol-2-Yl)-2,5-Dioxoimidazolidin-4-Yl]Methyl}[Biphenyl]-2-Carboxamide]
26 | 0.463 | Cn1ccnc1C1(CNC(=O)c2ccc(Cl)cc2-c2ccc(Cl)cc2)NC(=O)NC1=O (single isomer, unassigned; ent-4) [Example 162, Ent-4′,5-Dichloro-N-{[4-(1-Methyl-1H-Imidazol-2-Yl)-2,5-Dioxoimidazolidin-4-Yl]Methyl}[Biphenyl]-2-Carboxamide]

same assay, conditions: ADAMTS4 (R&D 4307-AD) 50 nM, substrate Dabcyl-[…]-Glu(Edans)-NH2 1 μM, 120 min, 32° C.

Row | SMILES | IC50 [µM]
27 | O=C1NC(=O)C(CNC(=O)c2ccc(F)cc2-c2ccc(Cl)cc2)(C2(F)CC2)N1 (single isomer, unassigned; ent-4) [Example 301, Ent-4′-Chloro-5-Fluoro-N-{[4-(1-Fluorocyclopropyl)-2,5-Dioxoimidazolidin-4-Yl]Methyl}[Biphenyl]-2-Carboxamide] | 15
